Paper PMC8778670, “Identification of an Orally Bioavailable, Brain-Penetrant Compound with Selectivity for the Cannabinoid Type 2 Receptor” (Molecules, 2022)
Values joined by “and” are separate entries in the source; they are usually repeats but may differ in a detail not shown here. Identical values can stand only once. Like-named read-outs stand apart in the source and are kept apart here.

Assays:
[1] = Stability studies under physiological pH; format: physicochemical; settings: 4k compared to 4q, data not reported
[2] = PK evaluation in CD-1 mice (plasma, brain, kidney, liver; i.v. and oral); format: in vivo; settings: for bioavailability: oral vs intravenous 5 mg/kg
Procedure: The primary stock solutions of 4k and phenacetin (internal standard, IS) were prepared in methanol at a concentration of 1.0 mg/mL. Working solutions of calibration standards and quality control (QC) samples were prepared by dilution with methanol and stored at −20 °C. A working stock of the IS solution (20 ng/mL) was prepared in methanol and stored at −20 °C.
Chromatography was performed on an Acquity^TM UPLC system (Waters Corp, Milford, MA, USA) with an autosampler temperature at 10 °C. Waters Acquity UPLC® HSS C18 column (3.0 × 50 mm, 1.8 µm particle size) was used for chromatographic separation with linear gradient elution consisting of (A) 90% acetonitrile and (B) 10% 0.2% formic acid in Milli-Q water as mobile phases. The flow rate was set at 0.30 mL/min, and the injection volume was 2 µL.
An Acquity Tandem Quadrupole Mass Detector (Xevo TQ-S; Waters Corp, Milford, MA, USA) in positive electrospray ionization mode was used for mass spectrometric detection. For collision-induced dissociation, argon was used as collision gas. The cone voltage and collision energy were set at 60 V and 34 V for 4k and 46 V and 26 V for the IS, respectively. Quantification was performed using the monitoring of multiple reaction monitoring (MRM) of following transitions: m/z 409.0/220.9 for 4k and m/z 180.0/92.7 for IS. Retention times of 4k and IS were 2.85 and 1.81 min, respectively.
A simple protein precipitation method was followed for extraction of 4k from mice plasma. To an aliquot of 50 μL of plasma or tissue (brain, liver, or kidney) samples, IS solution (5 μL of 20 ng/mL) was added and mixed for 15 s on a cyclomixer (Thermo Scientific, Indianapolis, IN, USA). After precipitation with 200 μL of acetonitrile, the mixture was vortexed for 2 min, followed by centrifugation for 10 min at 14,000 rpm on an accuSpin Micro 17R (Fisher Scientific, Suwanee, GA, USA) at 5 °C. An aliquot of ~150 μL of clear supernatant was transferred into vials and 2 μL was injected onto LC-MS/MS system for analysis.
Male CD-1 mice (N = 48) were obtained from Envigo (St. Louis, MO, USA) and maintained on a 12:12 h reversed dark/light cycle (lights off at 07:00 h) with ad libitum access to food and water. Following a ~4 h fast, animals were randomly assigned to one of two groups. Group I and II animals (n = 24/group, weight range 25–30 g) received compound 4k (5 mg/kg) orally (in the form of a solution, prepared using 10% absolute alcohol, 10% cremophor, and 80% Milli-Q water) or intravenously (i.v., using solution formulation comprising 10% absolute alcohol, 10% cremophor, and 80% normal saline), respectively. At 0.5, 1, 2, 4, 8, and 24 h post administration, animals were euthanized, blood was collected in K2. EDTA-containing polypropylene tubes and, tissues were collected (brain, liver, and kidney). Plasma was harvested by centrifuging the blood using Eppendorf 5430R Centrifuge (Germany) at 5000 rpm for 5 min and stored frozen at −80 °C until analysis.
Brain, liver, and kidney tissues were homogenized in separate 15 mL round-bottom screw-capped vials in phosphate buffered saline (5 volumes of each tissue mass) with a homogenizer (Polytron®) and stored at −80 °C until analysis. Plasma or tissue homogenates (50 μL) were spiked with IS and processed as mentioned in sample preparation section.
Plasma and tissue concentration and time data of compound 4k were analyzed by a non-compartmental method using WinNonlin Version 5.3 (Pharsight Corporation, Mountain View, CA, USA).

human CB2 receptors = molecular target: T1, human CB2 receptors (Homo sapiens, UniProt P34972); assay: Cannabinoid receptor [3H]CP-55,940 displacement binding assay, CB2
T1 construct: expressed in transfected cells; host or cells: CHO cells
Procedure: The affinities of the compounds for CB1 and CB2 receptors were examined using displacement assays, as previously described. Briefly, cell membranes from CHO cells expressing human CB1 or human CB2 receptors were isolated using differential centrifugation. Test compounds reconstituted in DMSO and were incubated with the isolated membrane in binding buffer (50 mM Tris-HCl, 1 mM EDTA, 3 mM MgCl2, 5 mg/mL BSA, pH 7.4) along with 2.5 nM [^3H]CP-55,940. Total binding was assessed in the presence of equal concentration of DMSO, while non-specific binding was determined in the presence of 10 μM CP-55,940, and background binding was determined in wells lacking membrane. Following incubation at 30 °C for 60 min, the binding reactions were terminated by vacuum filtration through Whatman GF/C filters. The filters were then washed twice with ice-cold buffer (50 mM Tris-HCl, 1 mg/mL BSA). Liquid scintillation cocktail was added to each well and the total tritiated counts per minute were analyzed using a TopCount scintillation counter. Background counts were subtracted from all wells and the percent displacement from total binding was calculated.
The compounds were initially screened at 10 μM concentrations. If they produced at least ±30% displacement of the radioligand, then full competition curves were constructed. Ki values were calculated using GraphPad Prism (San Diego, CA, USA) and Kd values determined using a 1 site fit. All assays were run in technical and biological replicates so that the n = 5–6.

[3] = male, CD-1, mouse, intravenous 5 mg/kg, plasma
[4] = male, CD-1, mouse, oral 5 mg/kg, plasma

T1 sequence (P34972 whole entry): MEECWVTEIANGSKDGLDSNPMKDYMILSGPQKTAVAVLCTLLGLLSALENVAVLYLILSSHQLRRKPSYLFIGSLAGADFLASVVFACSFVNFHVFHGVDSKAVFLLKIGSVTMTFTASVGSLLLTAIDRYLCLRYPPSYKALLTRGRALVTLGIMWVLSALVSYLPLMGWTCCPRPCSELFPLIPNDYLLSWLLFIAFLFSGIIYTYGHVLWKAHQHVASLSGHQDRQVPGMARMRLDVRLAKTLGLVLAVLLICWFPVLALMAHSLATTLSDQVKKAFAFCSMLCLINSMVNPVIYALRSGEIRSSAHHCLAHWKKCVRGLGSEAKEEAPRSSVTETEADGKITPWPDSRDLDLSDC

AUC0–∞ ([2]; intravenous 5 mg/kg, brain): 5685 ng·h/g | t1/2 ([2]; intravenous 5 mg/kg, brain, 5 mg/kg): 6.54 h | AUC0–∞ ([2]; intravenous 5 mg/kg, kidney): 13272 ng·h/g | AUC0–∞ ([2]; intravenous 5 mg/kg, liver): 19991 ng·h/g | t1/2 ([2]; intravenous 5 mg/kg, liver, 5 mg/kg): 9.26 h | clearance as share of hepatic blood flow in mice ([2]; intravenous 5 mg/kg, plasma): 26% | t1/2 ([2]; intravenous 5 mg/kg, plasma, 5 mg/kg): 6.91 h | Kp ([2]; male, CD-1, mouse, brain and plasma, intravenous 5 mg/kg, read-out: mean brain to plasma ratio): 3.67 | Kp ([2]; male, CD-1, mouse, brain and plasma, oral 5 mg/kg, read-out: mean brain to plasma ratio): 4.61 | half-life ([2]; male, CD-1, mouse, brain, iv, 5 mg/kg, intravenous 5 mg/kg, brain, read-out: t1/2 (converted)): 6.5 h | half-life ([2]; male, CD-1, mouse, brain, po, 5 mg/kg, oral 5 mg/kg, brain, read-out: t1/2 (converted)): 22.9 h | Kp ([2]; male, CD-1, mouse, kidney and plasma, intravenous 5 mg/kg, read-out: mean kidney to plasma ratio): 14.5 | Kp ([2]; male, CD-1, mouse, kidney and plasma, oral 5 mg/kg, read-out: mean kidney to plasma ratio): 7.25 | half-life ([2]; male, CD-1, mouse, kidney, iv, 5 mg/kg, intravenous 5 mg/kg, kidney, read-out: t1/2 (converted)): 10.2 h | half-life ([2]; male, CD-1, mouse, kidney, po, 5 mg/kg, oral 5 mg/kg, kidney, read-out: t1/2 (converted)): 16.7 h | Kp ([2]; male, CD-1, mouse, liver and plasma, intravenous 5 mg/kg, read-out: mean liver to plasma ratio): 11.5 | Kp ([2]; male, CD-1, mouse, liver and plasma, oral 5 mg/kg, read-out: mean liver to plasma ratio): 9.89 | half-life ([2]; male, CD-1, mouse, liver, iv, 5 mg/kg, intravenous 5 mg/kg, liver, read-out: t1/2 (converted)): 9.3 h | half-life ([2]; male, CD-1, mouse, liver, kidney, other: oral or intravenous, 5 mg/kg, oral or intravenous route, liver and kidneys, read-out: elimination half-lives in the liver and kidneys): 9.3 to 16.7 h | half-life ([2]; male, CD-1, mouse, liver, po, 5 mg/kg, oral 5 mg/kg, liver, read-out: t1/2 (converted)): 13 h | half-life ([2]; male, CD-1, mouse, plasma, iv, 5 mg/kg, intravenous 5 mg/kg, plasma, read-out: t1/2 (converted)): 6.9 h | half-life ([2]; male, CD-1, mouse, plasma, po, 5 mg/kg, oral 5 mg/kg, plasma, read-out: t1/2 (converted)): 16.4 h | Cmax ([2]; male, CD-1, mouse, intravenous 5 mg/kg, brain, read-out: Cmax or C0): 2260 ng/g | Vd ([2]; male, CD-1, mouse, intravenous 5 mg/kg, brain, read-out: volume of distribution): 8.82 ± 2.43 L/kg | Cmax ([2]; male, CD-1, mouse, intravenous 5 mg/kg, kidney, read-out: Cmax or C0): 4720 ng/g | Vd ([2]; male, CD-1, mouse, intravenous 5 mg/kg, kidney, read-out: volume of distribution): 5.63 ± 0.37 L/kg | Cmax ([2]; male, CD-1, mouse, intravenous 5 mg/kg, liver, read-out: Cmax or C0): 13500 ng/g | Vd ([2]; male, CD-1, mouse, intravenous 5 mg/kg, liver, read-out: volume of distribution): 3.38 ± 0.18 L/kg | AUC(0-inf) [2, 3]: 4020 ng·h/mL | clearance [2, 3]: 23.5 mL/min/kg | C0 ([2]; male, CD-1, mouse, intravenous 5 mg/kg, plasma, read-out: Cmax or C0): 4340 ng/mL | Vd ([2]; male, CD-1, mouse, intravenous 5 mg/kg, plasma, read-out: Vd): 14.3 L/kg | Tmax ([2]; male, CD-1, mouse, oral 5 mg/kg, brain): 1.25 h | Cmax ([2]; male, CD-1, mouse, oral 5 mg/kg, brain, read-out: Cmax): 602 ng/g | Tmax ([2]; male, CD-1, mouse, oral 5 mg/kg, kidney): 0.75 h | Cmax ([2]; male, CD-1, mouse, oral 5 mg/kg, kidney, read-out: Cmax): 795 ng/g | Tmax ([2]; male, CD-1, mouse, oral 5 mg/kg, liver): 0.75 h | Cmax ([2]; male, CD-1, mouse, oral 5 mg/kg, liver, read-out: Cmax): 1890 ng/g | AUC(0-inf) [2, 4]: 739 ng·h/mL | Tmax [2, 4]: 0.88 h | Cmax ([2]; male, CD-1, mouse, oral 5 mg/kg, plasma, read-out: Cmax): 198 ng/mL | bioavailability ([2]; male, CD-1, mouse, brain, read-out: F (apparent oral bioavailability)): 42.5 ± 5.75% | bioavailability ([2]; male, CD-1, mouse, plasma, read-out: F (oral bioavailability)): 18% | AUC0–∞ ([2]; oral 5 mg/kg, brain, 5 mg/kg): 3069 ± 64 ng·h/g and 3069 ng·h/g | AUC0–∞ ([2]; oral 5 mg/kg, kidney, 5 mg/kg): 5223 ± 44.75 ng·h/g and 5223 ng·h/g | AUC0–∞ ([2]; oral 5 mg/kg, liver, 5 mg/kg): 6423 ± 571 ng·h/g and 6423 ng·h/g | inhibition at 10 µM (human CB2 receptors; 1 h, 10 µM compound, CHO cell membranes, 2.5 nM radioligand, read-out: Displacement of [3H]CP-55,940 from CB2): 84.6% | Ki (human CB2 receptors; CB2, full competition curves vs [3H]CP-55,940): 146 nM
Structure (SMILES): O=C1c2ccc(Cl)cc2N/C(=N/N=C/c2cc3ccccc3s2)[C@@H]2CCCN12 [Compound 4k]
tolerance under physiological pH (stability) [1]: better tolerance
